Values quoted from earlier work, collected in EP2042172A1, “Use of tocopherol derivatives as inhibitors of the notch signalling pathway” (Inserm, priority 2007, dated 2009).

Test system: axonal growth
Conditions: even in the presence of inhibitory signals (Hanbali et al., 2004); cited from earlier work

## CC1=C(CCCCCCCCCCCCCCCO)C(C)(C)CCC1=O [tCFA15]
  axonal growth in vitro: promote axonal growth in vitro
